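Exposure lasted 48 hours, with cells grown in 96-well plates and compounds tested at five concentrations. The concentration for full growth arrest is given as TGI.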
Key:
Assay in all cases: NCI anticancer screen, dose series, 48 h
NCI/ADR-RES ovarian = test system: NCI/ADR-RES ovarian
A498 renal = test system: A498 renal
NCI-H23 lung = test system: NCI-H23 lung
MDA-N = test system: MDA-N
HCT-116 colon = test system: HCT-116 colon
SF-295 CNS = test system: SF-295 CNS
K-562 leukemia = test system: K-562 leukemia
CAKI-1 renal = test system: CAKI-1 renal
SNB-75 CNS = test system: SNB-75 CNS
MOLT-4 leukemia = test system: MOLT-4 leukemia
SNB-19 CNS = test system: SNB-19 CNS
TK-10 renal = test system: TK-10 renal
HCT-15 colon = test system: HCT-15 colon
OVCAR-3 ovarian = test system: OVCAR-3 ovarian
NCI-H460 lung = test system: NCI-H460 lung
SR leukemia = test system: SR leukemia
U251 CNS = test system: U251 CNS
SK-MEL-2 melanoma = test system: SK-MEL-2 melanoma
A549 NSCLC = test system: A549 NSCLC
HCC-2998 colon = test system: HCC-2998 colon
KM12 colon = test system: KM12 colon
PC-3 prostate = test system: PC-3 prostate
NCI-H226 lung = test system: NCI-H226 lung
786-0 renal = test system: 786-0 renal
SW-620 colon = test system: SW-620 colon
UO-31 renal = test system: UO-31 renal
MDA-MB-435 = test system: MDA-MB-435
MDA-MB-231 breast = test system: MDA-MB-231 breast
OVCAR-4 ovarian = test system: OVCAR-4 ovarian
SK-MEL-28 melanoma = test system: SK-MEL-28 melanoma
ACHN renal = test system: ACHN renal
EKVX NSCLC = test system: EKVX NSCLC
SF-268 CNS = test system: SF-268 CNS
LOX IMVI melanoma = test system: LOX IMVI melanoma
SK-OV-3 ovarian = test system: SK-OV-3 ovarian
M14 melanoma = test system: M14 melanoma
SN12C renal = test system: SN12C renal
HS 578T breast = test system: HS 578T breast
DU-145 prostate = test system: DU-145 prostate
HOP-62 NSCLC = test system: HOP-62 NSCLC
UACC-257 melanoma = test system: UACC-257 melanoma
MCF7 breast = test system: MCF7 breast
BT-549 breast = test system: BT-549 breast
OVCAR-8 ovarian = test system: OVCAR-8 ovarian
T-47D breast = test system: T-47D breast
RPMI-8226 leukemia = test system: RPMI-8226 leukemia
UACC-62 melanoma = test system: UACC-62 melanoma
RXF 393 renal = test system: RXF 393 renal
OVCAR-5 ovarian = test system: OVCAR-5 ovarian
COLO 205 colon = test system: COLO 205 colon
MALME-3M melanoma = test system: MALME-3M melanoma
NCI-H522 lung = test system: NCI-H522 lung
IGROV1 ovarian = test system: IGROV1 ovarian
CCRF-CEM leukemia = test system: CCRF-CEM leukemia
SK-MEL-5 melanoma = test system: SK-MEL-5 melanoma
SF-539 CNS = test system: SF-539 CNS
HT29 colon = test system: HT29 colon
HL-60(TB) leukemia = test system: HL-60(TB) leukemia
HOP-92 NSCLC = test system: HOP-92 NSCLC

Measured: TGI

COc1cc2ccnc3c2c(c1OC)N(C)C=C3
53.6 µM: 786-0 renal
80.3 µM: UACC-62 melanoma
47 µM: NCI-H23 lung
75.9 µM: SNB-19 CNS
96.3 µM: COLO 205 colon
> 100 µM: A498 renal | SNB-75 CNS | MOLT-4 leukemia | TK-10 renal | HCT-15 colon | OVCAR-3 ovarian | U251 CNS | KM12 colon | PC-3 prostate | SW-620 colon | SK-MEL-28 melanoma | SF-268 CNS | SN12C renal | HS 578T breast | DU-145 prostate | HOP-62 NSCLC | UACC-257 melanoma | OVCAR-8 ovarian | T-47D breast | OVCAR-5 ovarian
64.9 µM: SR leukemia
46.4 µM: ACHN renal
44.8 µM: CAKI-1 renal
61.6 µM: EKVX NSCLC
82.2 µM: RPMI-8226 leukemia
37.9 µM: HCT-116 colon
68.6 µM: RXF 393 renal
57.6 µM: SK-MEL-2 melanoma
44.6 µM: MCF7 breast
54.1 µM: NCI-H226 lung
33.8 µM: HCC-2998 colon
65.5 µM: K-562 leukemia
71.2 µM: OVCAR-4 ovarian
33.1 µM: UO-31 renal
76.4 µM: NCI/ADR-RES ovarian
36.1 µM: MDA-N
68.8 µM: M14 melanoma
80.4 µM: MDA-MB-435
41 µM: A549 NSCLC
29 µM: NCI-H460 lung
79.3 µM: SK-OV-3 ovarian
78.3 µM: SF-295 CNS
87.8 µM: BT-549 breast
80.6 µM: MDA-MB-231 breast
50.4 µM: LOX IMVI melanoma

S=C1NC(c2ccccc2)NC(c2ccccc2)S1 (stereo not drawn)
> 100 µM: NCI/ADR-RES ovarian | A498 renal | NCI-H23 lung | MDA-N | MALME-3M melanoma | HCT-116 colon | SF-295 CNS | K-562 leukemia | CAKI-1 renal | NCI-H522 lung | SNB-75 CNS | MOLT-4 leukemia | SNB-19 CNS | TK-10 renal | HCT-15 colon | OVCAR-3 ovarian | SR leukemia | U251 CNS | SK-MEL-2 melanoma | A549 NSCLC | KM12 colon | PC-3 prostate | NCI-H226 lung | 786-0 renal | SW-620 colon | UO-31 renal | MDA-MB-435 | MDA-MB-231 breast | OVCAR-4 ovarian | IGROV1 ovarian | SK-MEL-28 melanoma | ACHN renal | EKVX NSCLC | SF-268 CNS | LOX IMVI melanoma | SK-OV-3 ovarian | M14 melanoma | SN12C renal | HS 578T breast | DU-145 prostate | HOP-62 NSCLC | UACC-257 melanoma | SK-MEL-5 melanoma | SF-539 CNS | MCF7 breast | HT29 colon | BT-549 breast | OVCAR-8 ovarian | HL-60(TB) leukemia | T-47D breast | RPMI-8226 leukemia | UACC-62 melanoma | RXF 393 renal | HOP-92 NSCLC | OVCAR-5 ovarian | COLO 205 colon
8.38 µM: CCRF-CEM leukemia
63.3 µM: NCI-H460 lung

Source: PubChem BioAssay (NCI)
